The results in this text go back to ChEMBL document CHEMBL1144896 (2003).

Assay [1] has as its system BJ. The experiment in a line: Compound was tested for human telomerase reverse transcriptase-SEAP (hTERT-SEAP) activity in immortalized hTERT-BJI at 23 uM concentration. It is filed as functional.
Assay [2] deals with NCI-H1299. As to the kind of experiment: Compound was tested for human telomerase reverse transcriptase-SEAP (hTERT-SEAP) activity in non-small cell lung cancer H1299 cell at 230.0 uM concentration. Format: functional.
Assay [3] relates to NCI-H1299. The experiment in a line: Compound was tested for human telomerase reverse transcriptase-SEAP (hTERT-SEAP) activity in non-small cell lung cancer H1299 cell at 2.3 uM concentration. Format: functional.
Assay [4] has as its system NCI-H1299. The experiment in a line: hTERT-SEAP (Human telomerase reverse transcriptase-SEAP) activity in non-small cell lung cancer H1299 cell at 230.0 uM concentration and level of cell viability determined in MTT assay. Format: functional. (Tetrazolium assays rely on reduction of a dye to a coloured formazan, in cell work by metabolically active cells.)
The test system of assay [5] is BJ. As to the kind of experiment: Compound was tested for human telomerase reverse transcriptase-SEAP (hTERT-SEAP) activity in immortalized hTERT-BJI at 230.0 uM concentration. Format: functional.
The subject of assay [6] is NCI-H1299. The experiment in a line: hTERT-SEAP (Human telomerase reverse transcriptase-SEAP) activity in non-small cell lung cancer H1299 cell at 2.3 uM concentration and level of cell viability determined in MTT assay. Format: functional.
Assay [7] deals with NCI-H1299. The experiment in a line: hTERT-SEAP (Human telomerase reverse transcriptase-SEAP) activity in non-small cell lung cancer H1299 cell at 23 uM concentration and level of cell viability determined in MTT assay. Format: functional.
Assay [8] has as its system NCI-H1299. The experiment in a line: Compound was tested for human telomerase reverse transcriptase-SEAP (hTERT-SEAP) activity in non-small cell lung cancer H1299 cell at 23 uM concentration. It is filed as functional.
Assay [9] relates to BJ. The experiment in a line: hTERT-SEAP (Human telomerase reverse transcriptase-SEAP) activity in immortalized hTERT-BJI at 23 uM concentration and level of cell viability determined in MTT assay. Format: functional.
The subject of assay [10] is BJ. As to the kind of experiment: hTERT-SEAP (Human telomerase reverse transcriptase-SEAP) activity in immortalized hTERT-BJI at 230.0 uM concentration and level of cell viability determined in MTT assay. It is filed as functional.
Assay [11] has as its system BJ. As to the kind of experiment: Compound was tested for human telomerase reverse transcriptase-SEAP (hTERT-SEAP) activity in immortalized hTERT-BJI at 2.2 uM concentration. It is filed as functional.
Assay [12] concerns BJ. The experiment in a line: hTERT-SEAP (Human telomerase reverse transcriptase-SEAP) activity in immortalized hTERT-BJI at 2.2 uM concentration and level of cell viability determined in MTT assay. Format: functional.
For assay [13], the system named is BJ. The experiment in a line: Compound was tested for cytomegalovirus or (pPCMV-SEAP) activity in immortalized hTERT-BJ1 at 2.2 uM concentration. It is filed as functional, Homo sapiens.
Assay [14] relates to NCI-H1299. The experiment in a line: hTERT-SEAP (Human telomerase reverse transcriptase-SEAP) activity in non-small cell lung cancer H1299 cell at 220.0 uM concentration and level of cell viability determined in MTT assay. It is filed as functional.
Assay [15] deals with NCI-H1299. As to the kind of experiment: hTERT-SEAP (Human telomerase reverse transcriptase-SEAP) activity in non-small cell lung cancer H1299 cell at 2.2 uM concentration and level of cell viability determined in MTT assay. It is filed as functional.
Assay [16] relates to NCI-H1299. As to the kind of experiment: Compound was tested for human telomerase reverse transcriptase-SEAP (hTERT-SEAP) activity in non-small cell lung cancer H1299 cell at 22 uM concentration. Format: functional.
For assay [17], the system named is BJ. The experiment in a line: pPCMV-SEAP (cytomegalovirus-SEAP) activity in immortalized hTERT-BJ1 at 2.2 uM concentration and level of cell viability determined in MTT assay. It is filed as functional, Homo sapiens.
The subject of assay [18] is NCI-H1299. The experiment in a line: hTERT-SEAP (Human telomerase reverse transcriptase-SEAP) activity in non-small cell lung cancer H1299 cell at 22 uM concentration and level of cell viability determined in MTT assay. Format: functional.
Assay [19] has as its system BJ. The experiment in a line: Compound was tested for cytomegalovirus or (pPCMV-SEAP) activity in immortalized hTERT-BJ1 at 220 uM concentration. It is filed as functional, Homo sapiens.
Assay [20] concerns NCI-H1299. As to the kind of experiment: Compound was tested for human telomerase reverse transcriptase-SEAP (hTERT-SEAP) activity in non-small cell lung cancer H1299 cell at 220.0 uM concentration. Format: functional.
Assay [21] relates to BJ. The experiment in a line: Compound was tested for human telomerase reverse transcriptase-SEAP (hTERT-SEAP) activity in immortalized hTERT-BJI at 220.0 uM concentration. It is filed as functional.
Assay [22] has as its system BJ. As to the kind of experiment: pPCMV-SEAP (cytomegalovirus-SEAP) activity in immortalized hTERT-BJ1 at 22 uM concentration and level of cell viability determined in MTT assay. Format: functional, Homo sapiens.
Assay [23] deals with BJ. As to the kind of experiment: hTERT-SEAP (Human telomerase reverse transcriptase-SEAP) activity in immortalized hTERT-BJI at 22 uM concentration and level of cell viability determined in MTT assay. Format: functional.
In assay [24] the test system is NCI-H1299. As to the kind of experiment: Compound was tested for human telomerase reverse transcriptase-SEAP (hTERT-SEAP) activity in non-small cell lung cancer H1299 cell at 2.2 uM concentration. Format: functional.
For assay [25], the system named is BJ. The experiment in a line: pPCMV-SEAP (cytomegalovirus-SEAP) activity in immortalized hTERT-BJ1 at 220 uM concentration and level of cell viability determined in MTT assay. It is filed as functional, Homo sapiens.
Assay [26] has as its system BJ. The experiment in a line: Compound was tested for cytomegalovirus or (pPCMV-SEAP) activity in immortalized hTERT-BJ1 at 22 uM concentration. It is filed as functional, Homo sapiens.
In assay [27] the test system is BJ. As to the kind of experiment: hTERT-SEAP (Human telomerase reverse transcriptase-SEAP) activity in immortalized hTERT-BJI at 220.0 uM concentration and level of cell viability determined in MTT assay. It is filed as functional.
Assay [28] deals with BJ. The experiment in a line: Compound was tested for human telomerase reverse transcriptase-SEAP (hTERT-SEAP) activity in immortalized hTERT-BJI at 22 uM concentration. Format: functional.
In assay [29] the test system is NCI-H1299. The experiment in a line: hTERT-SEAP (Human telomerase reverse transcriptase-SEAP) activity in non-small cell lung cancer H1299 cell at 2.8 uM concentration and level of cell viability determined in MTT assay. Format: functional.
Assay [30] relates to BJ. The experiment in a line: Compound was tested for human telomerase reverse transcriptase-SEAP (hTERT-SEAP) activity in immortalized hTERT-BJI at 2.8 uM concentration. It is filed as functional.
The subject of assay [31] is NCI-H1299. As to the kind of experiment: Compound was tested for human telomerase reverse transcriptase-SEAP (hTERT-SEAP) activity in non-small cell lung cancer H1299 cell at 2.8 uM concentration. It is filed as functional.
Assay [32] relates to NCI-H1299. The experiment in a line: hTERT-SEAP (Human telomerase reverse transcriptase-SEAP) activity in non-small cell lung cancer H1299 cell at 28 uM concentration and level of cell viability determined in MTT assay. Format: functional.
Assay [33] relates to BJ. As to the kind of experiment: hTERT-SEAP (Human telomerase reverse transcriptase-SEAP) activity in immortalized hTERT-BJI at 280.0 uM concentration and level of cell viability determined in MTT assay. Format: functional.
Assay [34] relates to NCI-H1299. As to the kind of experiment: hTERT-SEAP (Human telomerase reverse transcriptase-SEAP) activity in non-small cell lung cancer H1299 cell at 280.0 uM concentration and level of cell viability determined in MTT assay. It is filed as functional.
The subject of assay [35] is BJ. As to the kind of experiment: hTERT-SEAP (Human telomerase reverse transcriptase-SEAP) activity in immortalized hTERT-BJI at 28.0 uM concentration and level of cell viability determined in MTT assay. It is filed as functional.
In assay [36] the test system is NCI-H1299. The experiment in a line: Compound was tested for human telomerase reverse transcriptase-SEAP (hTERT-SEAP) activity in non-small cell lung cancer H1299 cell at 28.0 uM concentration. It is filed as functional.
Assay [37] deals with BJ. As to the kind of experiment: hTERT-SEAP (Human telomerase reverse transcriptase-SEAP) activity in immortalized hTERT-BJI at 2.8 uM concentration and level of cell viability determined in MTT assay. It is filed as functional.
The test system of assay [38] is NCI-H1299. As to the kind of experiment: Compound was tested for human telomerase reverse transcriptase-SEAP (hTERT-SEAP) activity in non-small cell lung cancer H1299 cell at 280.0 uM concentration. Format: functional.
For assay [39], the system named is BJ. As to the kind of experiment: Compound was tested for human telomerase reverse transcriptase-SEAP (hTERT-SEAP) activity in immortalized hTERT-BJI at 280.0 uM concentration. Format: functional.
Assay [40] concerns BJ. As to the kind of experiment: Compound was tested for human telomerase reverse transcriptase-SEAP (hTERT-SEAP) activity in immortalized hTERT-BJI at 28.0 uM concentration. Format: functional.

`CCCCCC(=O)Oc1cccc2c1C(=O)c1cccc(OC(=O)CCCCC)c1C2=O`: the “Relative SEAP activity” value worked out at 149% in assay [1]; 95% in assay [2]; 91% in assay [3]; 124% in assay [5]; 95% in [8]. In addition, the Relative viability in assay [4] came out at 106%; in assay [6], 117%; in assay [7], 114%; in assay [9], 98%; in [10] it was 62%.

For the compound `O=C1c2cccc(Sc3nccc(O)n3)c2C(=O)c2cccc(Sc3nccc(O)n3)c21`, the “Relative SEAP activity” value was determined as 93% in assay [11]; 112% in [13]; 97% in [16]; 120% in assay [19]; 93% in [20]; 145% in [21]. For the same compound, the “Relative SEAP activity” value came to 92% in [24], 105% in [26] and 116% in assay [28]. The Relative viability is given as 104% in assay [12]; 51% in assay [14]; 99% in assay [15]; 107% in assay [17]; 95% in [18]; 118% in assay [22]. The Relative viability in assay [23] came out at 106%; in assay [25] it was 78%; in [27], 89%.

As to `CCCSc1cccc2c1C(=O)c1cccc(SCCC)c1C2=O`, the Relative viability in assay [29] was found to be 96%; in [32] it was 44%; in assay [33], 39%; in [34], 25%; in assay [35], 97%; in assay [37], 103%. Besides, the “Relative SEAP activity” value in assay [30] was determined as 132%; in assay [31], 73%; in assay [36], 29%; in assay [38], 17%; in assay [39], 122%; in assay [40], 110%.
